{"source": "patent US7026339B2", "about": "“Inhibitors of HCV NS5B polymerase” (priority 2003, dated 2006)"}
{"system": "HuH-7 replicon cells 5–15 and 9–13 (HCV replication)", "assay": "Inhibition of viral replication in HuH-7 replicon cells (HCV RNA / GAPDH RNA by multiplex RT-PCR)", "format": "cell-based", "conditions": "Hepatitis C virus, 72 h; inhibiting 50% of replication; HuH-7 replicon cells, 3 days; read-out: IC50", "how_it_was_run": "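HCV and GAPDH RNA were measured by multiplex TaqMan RT-PCR (HCV 5′ untranslated region) after 3-day compound treatment at 37 °C, final 100 μM–1 μM in 1% DMSO. Cells were plated 24 h beforehand at 7×10^3/well. Read-out: HCV-to-GAPDH ratio expressed as percent control versus untreated cells.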", "units": {"IC50": "µM"}}
{"smiles": "O=C(Cc1ccccc1)N/N=C/c1ccccc1OS(=O)(=O)c1cccc(Cl)c1", "note": "[Compound 116, 2-{(E)-[2-(2-phenylacetyl)hydrazono]methyl}phenyl 3-chlorobenzenesulfonate]", "IC50": "> 50"}
{"smiles": "O=C(Cc1ccccc1)N/N=C/c1ccccc1OS(=O)(=O)c1ccc(Cl)cc1", "note": "[Compound 117, 2-{(E)-[2-(2-phenylacetyl)hydrazono]methyl}phenyl 4-chlorobenzenesulfonate]", "IC50": "< 5"}
{"smiles": "O=C(Cc1ccccc1)N/N=C/c1ccccc1OS(=O)(=O)c1ccc(F)c(F)c1", "note": "[Compound 118, 2-{(E)-[2-(2-phenylacetyl)hydrazono]methyl}phenyl3,4-difluorobenzenesulfonate]", "IC50": "5 to 50"}
{"smiles": "O=C(Cc1ccccc1)N/N=C/c1ccccc1OS(=O)(=O)c1ccc2ccccc2c1", "note": "[Compound 119, 2-{(E)-[2-(2-phenylacetyl)hydrazono]methyl}phenylnaphthalene-2-sulfonate]", "IC50": "< 5"}
{"smiles": "O=C(Cc1ccccc1)N/N=C/c1ccccc1OS(=O)(=O)c1ccc(F)c(Cl)c1", "note": "[Compound 120, 2-{(E)-[2-(2-phenylacetyl)hydrazono]methyl}phenyl 3-chloro-4-fluorobenzenesulfonate]", "IC50": "5 to 50"}
{"smiles": "CC(C)(C)c1ccc(S(=O)(=O)Oc2ccccc2/C=N/NC(=O)Cc2ccccc2)cc1", "note": "[Compound 121, 2-{(E)-[2-(2-phenylacetyl)hydrazono]methyl}phenyl 4-tert-butylbenzenesulfonate]", "IC50": "< 5"}
{"smiles": "O=C(Cc1ccccc1)N/N=C/c1ccccc1OS(=O)(=O)c1cccc(C(F)(F)F)c1", "note": "[Compound 122, 2-{(E)-[2-(2-phenylacetyl)hydrazono]methyl}phenyl 3-(trifluoromethyl)benzenesulfonate]", "IC50": "5 to 50"}
{"smiles": "O=C(Cc1ccccc1)N/N=C/c1ccccc1OS(=O)(=O)c1ccc(C(F)(F)F)cc1", "note": "[Compound 123, 2-{(E)-[2-(2-phenylacetyl)hydrazono]methyl}phenyl 4-(trifluoromethyl)benzenesulfonate]", "IC50": "< 5"}
{"smiles": "O=C(Cc1ccccc1)N/N=C/c1ccccc1OS(=O)(=O)c1ccc(Cl)cc1Cl", "note": "[Compound 124, 2-{(E)-[2-(2-phenylacetyl)hydrazono]methyl}phenyl2,4-dichlorobenzenesulfonate]", "IC50": "< 5"}
{"smiles": "O=C(Cc1ccccc1)N/N=C/c1ccccc1OS(=O)(=O)c1ccc(Cl)c(Cl)c1", "note": "[Compound 125, 2-{(E)-[2-(2-phenylacetyl)hydrazono]methyl}phenyl3,4-dichlorobenzenesulfonate]", "IC50": "< 5"}
{"smiles": "O=C(Cc1ccccc1)N/N=C/c1ccccc1OS(=O)(=O)c1cc(Cl)cc(Cl)c1", "note": "[Compound 126, 2-{(E)-[2-(2-phenylacetyl)hydrazono]methyl}phenyl3,5-dichlorobenzenesulfonate]", "IC50": "5 to 50"}
{"smiles": "O=C(Cc1ccccc1)N/N=C/c1ccccc1OS(=O)(=O)c1cccc(Br)c1", "note": "[Compound 127, 2-{(E)-[2-(2-phenylacetyl)hydrazono]methyl}phenyl 3-bromobenzenesulfonate]", "IC50": "5 to 50"}
{"smiles": "O=C(Cc1ccccc1)N/N=C/c1ccccc1OS(=O)(=O)c1ccc(Br)cc1", "note": "[Compound 128, 2-{(E)-[2-(2-phenylacetyl)hydrazono]methyl}phenyl 4-bromobenzenesulfonate]", "IC50": "< 5"}
{"smiles": "O=C(Cc1ccccc1)N/N=C/c1ccccc1OS(=O)(=O)c1ccc(F)cc1", "note": "[Compound 129, 2-{(E)-[2-(2-phenylacetyl)hydrazono]methyl}phenyl 4-fluorobenzenesulfonate]", "IC50": "5 to 50"}
{"smiles": "Cc1ccc(C)c(S(=O)(=O)Oc2ccccc2/C=N/NC(=O)Cc2ccccc2)c1", "note": "[Compound 130, 2-{(E)-[2-(2-phenylacetyl)hydrazono]methyl}phenyl2,5-dimethylbenzenesulfonate]", "IC50": "> 50"}
{"smiles": "COc1ccc(S(=O)(=O)Oc2ccccc2/C=N/NC(=O)Cc2ccccc2)cc1", "note": "[Compound 131, 2-{(E)-[2-(2-phenylacetyl)hydrazono]methyl}phenyl 4-methoxybenzenesulfonate]", "IC50": "< 5"}
{"smiles": "O=C(Cc1ccccc1)N/N=C/c1ccccc1OS(=O)(=O)c1ccccc1Cl", "note": "[Compound 132, 2-{(E)-[2-(2-phenylacetyl)hydrazono]methyl}phenyl 2-chlorobenzenesulfonate]", "IC50": "> 50"}
{"smiles": "O=C(Cc1ccccc1)N/N=C/c1ccccc1OS(=O)(=O)c1ccc(F)cc1F", "note": "[Compound 133, 2-{(E)-[2-(2-phenylacetyl)hydrazono]methyl}phenyl2,4-difluorobenzenesulfonate]", "IC50": "> 50"}
{"smiles": "CCCc1ccc(S(=O)(=O)Oc2ccccc2/C=N/NC(=O)Cc2ccccc2)cc1", "note": "[Compound 134, 2-{(E)-[2-(2-phenylacetyl)hydrazono]methyl}phenyl 4-propylbenzenesulfonate]", "IC50": "< 5"}
{"smiles": "CC(C)c1ccc(S(=O)(=O)Oc2ccccc2/C=N/NC(=O)Cc2ccccc2)cc1", "note": "[Compound 135, 2-{(E)-[2-(2-phenylacetyl)hydrazono]methyl}phenyl 4-isopropylbenzenesulfonate]", "IC50": "< 5"}
{"smiles": "O=C(Cc1ccccc1)N/N=C/c1ccccc1OS(=O)(=O)c1cccc2ccccc12", "note": "[Compound 136, 2-{(E)-[2-(2-phenylacetyl)hydrazono]methyl}phenylnaphthalene-1-sulfonate]", "IC50": "> 50"}
{"smiles": "O=C(Cc1ccccc1)N/N=C/c1ccccc1OS(=O)(=O)c1ccc(F)cc1Cl", "note": "[Compound 137, 2-{(E)-[2-(2-phenylacetyl)hydrazono]methyl}phenyl 2-chloro-4-fluorobenzenesulfonate]", "IC50": "5 to 50"}
{"smiles": "COc1ccc(OC)c(S(=O)(=O)Oc2ccccc2/C=N/NC(=O)Cc2ccccc2)c1", "note": "[Compound 138, 2-{(E)-[2-(2-phenylacetyl)hydrazono]methyl}phenyl2,5-dimethoxybenzenesulfonate]", "IC50": "> 50"}
{"smiles": "O=C(Cc1ccccc1)N/N=C/c1ccccc1OS(=O)(=O)c1cc(Cl)ccc1Cl", "note": "[Compound 139, 2-{(E)-[2-(2-phenylacetyl)hydrazono]methyl}phenyl2,5-dichlorobenzenesulfonate]", "IC50": "> 50"}
{"smiles": "O=C(Cc1ccccc1)N/N=C/c1ccccc1OS(=O)(=O)c1ccccc1Br", "note": "[Compound 140, 2-{(E)-[2-(2-phenylacetyl)hydrazono]methyl}phenyl 2-bromobenzenesulfonate]", "IC50": "> 50"}
{"smiles": "O=C(Cc1ccccc1)N/N=C/c1ccccc1OS(=O)(=O)c1ccccc1OC(F)(F)F", "note": "[Compound 141, 2-{(E)-[2-(2-phenylacetyl)hydrazono]methyl}phenyl 2-(trifluoromethoxy)benzenesulfonate]", "IC50": "> 50"}
{"smiles": "O=C(Cc1ccccc1)N/N=C/c1ccccc1OS(=O)(=O)c1ccc(OC(F)(F)F)cc1", "note": "[Compound 142, 2-{(E)-[2-(2-phenylacetyl)hydrazono]methyl}phenyl 4-(trifluoromethoxy)benzenesulfonate]", "IC50": "< 5"}
{"smiles": "COc1cccc(S(=O)(=O)Oc2ccccc2/C=N/NC(=O)Cc2ccccc2)c1", "note": "[Compound 143, 2-{(E)-[2-(2-phenylacetyl)hydrazono]methyl}phenyl 3-methoxybenzenesulfonate]", "IC50": "5 to 50"}
{"smiles": "O=C(Cc1ccccc1)N/N=C/c1ccccc1OS(=O)(=O)c1ccc(-c2ccccc2)cc1", "note": "[Compound 144, 2-{(E)-[2-(2-phenylacetyl)hydrazono]methyl}phenyl1,1′-biphenyl-4-sulfonate]", "IC50": "> 50"}
{"smiles": "COc1cccc(CC(=O)N/N=C/c2ccccc2OS(=O)(=O)c2ccc(C)cc2)c1", "note": "[Compound 145, 2-((E)-{2-[2-(3-methoxyphenyl)acetyl]hydrazono}methyl)-phenyl 4-methylbenzenesulfonate]", "IC50": "< 5"}
{"smiles": "COc1cccc(CC(=O)N/N=C/c2ccccc2OS(=O)(=O)c2ccc(C(F)(F)F)cc2)c1", "note": "[Compound 146, 2-((E)-{2-[2-(3-methoxyphenyl)acetyl]hydrazono}methyl)-phenyl 4-(trifluoromethyl)benzenesulfonate]", "IC50": "< 5"}
{"smiles": "Cc1ccc(S(=O)(=O)Oc2ccccc2/C=N/NC(=O)Cc2cccc(Cl)c2)cc1", "note": "[Compound 147, 2-((E)-{2-[2-(3-chlorophenyl)acetyl]hydrazono}methyl)-phenyl 4-methylbenzenesulfonate]", "IC50": "< 5"}
{"smiles": "O=C(Cc1cccc(Cl)c1)N/N=C/c1ccccc1OS(=O)(=O)c1ccc(C(F)(F)F)cc1", "note": "[Compound 148, 2-((E)-{2-[2-(3-chlorophenyl)acetyl]hydrazono}methyl)-phenyl 4-(trifluoromethyl)benzenesulfonate]", "IC50": "< 5"}
{"smiles": "COc1ccc(CC(=O)N/N=C/c2ccccc2OS(=O)(=O)c2ccc(C)cc2)cc1OC", "note": "[Compound 149, 2-((E)-{2-[2-(3,4-dimethoxyphenyl)acetyl]hydrazono}methyl)-phenyl 4-methylbenzenesulfonate]", "IC50": "< 5"}
{"smiles": "COc1ccc(CC(=O)N/N=C/c2ccccc2OS(=O)(=O)c2ccc(C(F)(F)F)cc2)cc1OC", "note": "[Compound 150, 2-((E)-{2-[2-(3,4-dimethoxyphenyl)acetyl]hydrazono}methyl)-phenyl 4-(trifluoromethyl)benzenesulfonate]", "IC50": "< 5"}
{"smiles": "COc1ccc(S(=O)(=O)Oc2ccccc2/C=N/NC(=O)Cc2cccc(OC)c2)cc1", "note": "[Compound 151, 2-((E)-{2-[2-(3-methoxyphenyl)acetyl]hydrazono}methyl)-phenyl 4-methoxybenzenesulfonate]", "IC50": "< 5"}
{"smiles": "COc1cccc(CC(=O)N/N=C/c2ccccc2OS(=O)(=O)c2ccc(OC)c(OC)c2)c1", "note": "[Compound 152, 2-((E)-{2-[2-(3-methoxyphenyl)acetyl]hydrazono}methyl)-phenyl 3,4-dimethoxybenzenesulfonate]", "IC50": "< 5"}
{"smiles": "COc1cccc(CC(=O)N/N=C/c2ccccc2OS(=O)(=O)c2cc(OC)ccc2OC)c1", "note": "[Compound 153, 2-((E)-{2-[2-(3-methoxyphenyl)acetyl]hydrazono}methyl)-phenyl 2,5-dimethoxybenzenesulfonate]", "IC50": "< 5"}
{"smiles": "COc1cccc(CC(=O)N/N=C/c2ccccc2OS(=O)(=O)c2ccc(OC)cc2OC)c1", "note": "[Compound 154, 2-((E)-{2-[2-(3-methoxyphenyl)acetyl]hydrazono}methyl)-phenyl 2,4-dimethoxybenzenesulfonate]", "IC50": "< 5"}
